ChEMBL document CHEMBL1142262, “New QSAR combined strategy for the design of A1 adenosine receptor agonists” (Bioorg Med Chem, 2008)

target: T1, Adenosine receptor A1 (Rattus norvegicus) (UniProt P25099); assay: Displacement of [3H]R-N6-phenylisopropyladenosine from adenosine A1 receptor in rat cerebral cortical membrane at 100 uM; assay type: cell membranes; settings: not given
T1 sequence (whole entry): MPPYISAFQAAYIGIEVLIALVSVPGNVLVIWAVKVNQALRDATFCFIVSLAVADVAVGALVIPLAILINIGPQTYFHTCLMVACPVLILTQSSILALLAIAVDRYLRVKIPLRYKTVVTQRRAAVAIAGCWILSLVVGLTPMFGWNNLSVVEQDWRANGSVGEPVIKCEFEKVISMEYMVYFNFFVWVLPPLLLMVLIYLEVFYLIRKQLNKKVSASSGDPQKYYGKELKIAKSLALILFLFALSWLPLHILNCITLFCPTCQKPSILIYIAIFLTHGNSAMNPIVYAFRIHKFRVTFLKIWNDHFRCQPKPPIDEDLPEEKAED

inhibition | Compound
< 10% | CNC(=O)C1CC=CC1n1cnc2c(NCc3ccccc3)ncnc21 (racemic)
< 10% | CNC(=O)C1CCCC1n1cnc2c(NCc3ccccc3I)ncnc21 (racemic)
29% | NNc1ncnc2c1ncn2C1C=CCC1CO (racemic)

Continued, compound first:

Compound | inhibition
CNC(=O)C1CC=CC1n1cnc2c(N)ncnc21 (racemic) | 22%
CNC(=O)C1CC=CC1n1cnc2c(NC3CC3)ncnc21 (racemic) | 50%
CNC(=O)C1CC=CC1n1cnc2c(NC3CCCC3)ncnc21 (racemic) | < 10%
CNC(=O)C1CCCC1n1cnc2c(N)ncnc21 (racemic) | 25%
CNC(=O)C1CCCC1n1cnc2c(NC3CC3)ncnc21 (racemic) | < 10%
CNC(=O)C1CCCC1n1cnc2c(NC3CCCC3)ncnc21 (racemic) | 31%
CNC(=O)C1CCCC1n1cnc2c(NCc3ccccc3)ncnc21 (racemic) | 26%

target: T2, Adenosine receptor A1 (Rattus norvegicus, UniProt P25099); assay: Displacement of [3H]R-N6-phenylisopropyladenosine from adenosine A1 receptor in rat cerebral cortical membrane; assay type: cell membranes; settings: read-out: -Log Ki (converted)
T2 sequence (P25099 whole entry): T1 sequence (whole entry)

Ki | Compound
333 µM | OCC1CC=CC1n1cnc2c(NC3CCCC3)ncnc21 (racemic)

same assay, conditions: read-out: Ki

Ki | Compound
3 µM | OCC1CC=CC1n1cnc2c(NC3CCCC3)ncnc21 (racemic)
25.5 µM | OCC1CC=CC1n1cnc2c(NCc3ccccc3I)ncnc21 (racemic)
32.3 µM | OCC1CC=CC1n1cnc2c(NC3CC3)ncnc21 (racemic)
